Consider two molecules from ChEMBL document CHEMBL1135817, “New templates for syntheses of ring-fused, C(10) beta-turn peptidomimetics leading to the first reported small-molecule mimic of neurotrophin-3” (2002).

Experiment [1] relates to NIH3T3. The experiment is described as follows: Binding affinity for NIH3T3 cells at 20 uM (negative control). Type of experiment: functional, Mus musculus.
Experiment [2] concerns the target NT-3 growth factor receptor (Mus musculus) (UniProt Q6VNS1). The experiment can be described thus: Binding affinity for TrkC receptor transfected cells at 20 uM with 20 nM anti-TrkC-Ab.
Experiment [3] has as its target High affinity nerve growth factor receptor (Homo sapiens) (UniProt P04629). The experiment can be described thus: Binding affinity for TrkA receptor transfected NIH3T3 cells at 20 uM with 2 nM NGF. It is filed as cell-based.
Experiment [4] shares this target. The experiment is described as follows: Binding affinity for TrkA receptor transfected NIH3T3 cells at 20 uM without NGF. Type of experiment: cell-based.
Experiment [5] deals with NT-3 growth factor receptor (Mus musculus) (UniProt Q6VNS1). The experiment can be described thus: Binding affinity for TrkC receptor transfected cells at 20 uM without NT-3.
Sequence of NT-3 growth factor receptor (Mus musculus) (Q6VNS1 whole entry): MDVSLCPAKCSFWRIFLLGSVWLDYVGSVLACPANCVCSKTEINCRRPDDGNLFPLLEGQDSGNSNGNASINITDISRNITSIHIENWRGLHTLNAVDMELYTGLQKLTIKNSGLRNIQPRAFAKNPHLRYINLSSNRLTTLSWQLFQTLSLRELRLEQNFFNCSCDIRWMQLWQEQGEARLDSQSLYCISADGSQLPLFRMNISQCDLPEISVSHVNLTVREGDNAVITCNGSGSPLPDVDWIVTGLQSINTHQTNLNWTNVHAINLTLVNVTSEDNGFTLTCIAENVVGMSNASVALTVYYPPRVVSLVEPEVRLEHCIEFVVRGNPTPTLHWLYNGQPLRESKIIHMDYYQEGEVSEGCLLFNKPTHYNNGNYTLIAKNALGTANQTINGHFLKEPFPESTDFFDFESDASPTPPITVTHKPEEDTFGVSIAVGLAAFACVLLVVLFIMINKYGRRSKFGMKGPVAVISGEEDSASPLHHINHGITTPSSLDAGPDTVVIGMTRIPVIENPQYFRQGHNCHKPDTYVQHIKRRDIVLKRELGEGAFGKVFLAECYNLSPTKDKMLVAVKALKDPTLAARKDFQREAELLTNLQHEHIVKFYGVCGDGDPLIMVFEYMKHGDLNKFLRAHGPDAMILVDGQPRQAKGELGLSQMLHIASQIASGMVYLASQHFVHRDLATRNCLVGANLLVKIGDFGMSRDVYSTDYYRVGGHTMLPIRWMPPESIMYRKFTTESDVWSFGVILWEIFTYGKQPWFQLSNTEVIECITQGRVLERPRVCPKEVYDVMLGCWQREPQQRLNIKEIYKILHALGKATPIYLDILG
Experiment [6] has the same target. The experiment is described as follows: Binding affinity for TrkC receptor transfected cells at 20 uM with 2 nM NT-3.
For experiment [7] the target is unchanged. The experiment is described as follows: Survival of TrkC receptor transfected NIH3T3 cells without NT-3 (negative control). It is filed as functional, cell-based.
Experiment [8] has the same target. The experiment is described as follows: Survival of TrkC receptor transfected NIH3T3 cells with suboptimal NT-3 (100 pM). It is filed as functional, cell-based.
Experiment [9] shares this target. The experiment can be described thus: Survival of TrkC receptor transfected NIH3T3 cells at o.4 uM with 100 pM NT-3. It is filed as functional, cell-based.
Experiment [10] has the same target. The experiment is described as follows: Survival of TrkC receptor transfected NIH3T3 cells at 50 uM with 100 pM NT-3. It is filed as functional, cell-based.
For experiment [11], the system named is NIH3T3. The experiment can be described thus: Binding of irrelevant FITC-Ab to NIH3T3 cells (negative control). Type of experiment: functional, Mus musculus.
Experiment [12] addresses NT-3 growth factor receptor (Mus musculus) (UniProt Q6VNS1). The experiment is described as follows: Survival of TrkC receptor transfected NIH3T3 cells at 10 uM with 100 pM NT-3. It is filed as functional, cell-based.
The target in experiment [13] is High affinity nerve growth factor receptor (Homo sapiens) (UniProt P04629). The experiment is described as follows: Binding of FITCanti-TrkA-Ab to human TrkA receptor transfected NIH3T3 cells (positive control). It is filed as cell-based.
Sequence of High affinity nerve growth factor receptor (Homo sapiens) (P04629 33-796 limits assumed): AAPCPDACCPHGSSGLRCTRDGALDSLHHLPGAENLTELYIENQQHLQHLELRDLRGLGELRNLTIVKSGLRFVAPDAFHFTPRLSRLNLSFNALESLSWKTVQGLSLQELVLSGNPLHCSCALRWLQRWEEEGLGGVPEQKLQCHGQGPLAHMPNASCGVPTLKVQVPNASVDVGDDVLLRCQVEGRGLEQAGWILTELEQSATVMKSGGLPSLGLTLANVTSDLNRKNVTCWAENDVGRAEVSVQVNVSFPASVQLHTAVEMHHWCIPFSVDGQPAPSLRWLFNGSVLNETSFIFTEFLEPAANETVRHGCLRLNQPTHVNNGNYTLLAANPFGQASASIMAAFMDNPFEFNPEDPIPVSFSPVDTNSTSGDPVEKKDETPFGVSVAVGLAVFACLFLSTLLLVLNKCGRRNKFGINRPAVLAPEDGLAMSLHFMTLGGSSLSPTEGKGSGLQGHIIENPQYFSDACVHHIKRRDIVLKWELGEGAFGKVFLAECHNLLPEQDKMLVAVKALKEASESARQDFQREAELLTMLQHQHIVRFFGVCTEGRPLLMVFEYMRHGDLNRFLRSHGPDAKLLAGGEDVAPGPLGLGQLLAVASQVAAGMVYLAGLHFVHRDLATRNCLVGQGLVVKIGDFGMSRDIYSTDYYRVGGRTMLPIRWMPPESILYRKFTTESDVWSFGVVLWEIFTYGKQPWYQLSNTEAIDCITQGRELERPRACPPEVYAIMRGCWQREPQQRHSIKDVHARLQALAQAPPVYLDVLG
Experiment [14] concerns the target NT-3 growth factor receptor (Mus musculus) (UniProt Q6VNS1). The experiment can be described thus: Survival of TrkC receptor transfected NIH3T3 cells at 50 uM without NT-3. It is filed as functional, cell-based.
Experiment [15] has the same target. The experiment is described as follows: Survival of TrkC receptor transfected NIH3T3 cells at o.4 uM without NT-3. Type of experiment: functional, cell-based.
For experiment [16] the target is unchanged. The experiment is described as follows: Survival of TrkC receptor transfected NIH3T3 cells with 2000 pM NT-3 (positive control). It is filed as functional, cell-based.
Experiment [17] shares this target. The experiment is described as follows: Survival of TrkC receptor transfected NIH3T3 cells at 2 uM without NT-3. Type of experiment: functional, cell-based.
Experiment [18] shares this target. The experiment can be described thus: Binding of FITCanti-TrkC-Ab to TrkC receptor transfected NIH3T3 cells (positive control). It is filed as cell-based.
Experiment [19] has the same target. The experiment can be described thus: Survival of TrkC receptor transfected NIH3T3 cells at 10 uM without NT-3. It is filed as functional, cell-based.
The target is the same in experiment [20]. The experiment can be described thus: Survival of TrkC receptor transfected NIH3T3 cells at 2 uM with 100 pM NT-3. It is filed as functional, cell-based.

The structures appear in SMILES notation.

For the molecule `NCCCC[C@@H]1NC(=O)c2cc(NC(=O)CC/N=C(S)/N=C3/C=CC(=C4c5ccc(O)cc5Oc5cc(O)ccc54)C(C(=O)O)=C3)ccc2NCc2ccc(C(N)=O)cc2NC(=O)[C@H](CO)NC1=O`, the Max binding stood at 14% with NIH3T3 [1]; 40% in experiment [2]; 9% in [3]; 22% in experiment [4]; 11% in experiment [5]; 42% in experiment [6].

`NCCCC[C@@H]1NC(=O)c2cc([N+](=O)[O-])ccc2NCc2ccc(C(N)=O)cc2NC(=O)[C@H](CO)NC1=O`: the Survival was found to be 0% in [7]; 26% in experiment [8]; 32% in experiment [9]; 36% in experiment [10]; 38% in [12]; 0.2% in [14]. For the same molecule, the Survival in [15] was determined as 0.2%; in [16] it was 100%; in [17], 0.1%; in [19], 0.4%; in experiment [20], 33%. Besides, the Max binding came to 14% with NIH3T3 [11], 71% in experiment [13] and 22% in experiment [18].
